Data reported in patent US5948886A, “Acylated enol derivatives of α-ketoesters and α-ketoamides” (Hoechst Marion Roussel, Inc., priority 1997, dated 1999).

Key:
Elastase [1] = target: T1, Elastase (Homo sapiens, UniProt P08246); assay: In vitro assay of elastase with chromogenic substrate N-MeOSuc-Ala-Ala-Pro-Val-p-nitroanilide, no esterase; type: biochemical; details: for Ki: parent (liberated) drug itself, read-out: Ki measured / determined independently; for rate of hydrolysis of the substrate (no inhibitor or prodrug added = 100%): without esterase
T1 construct: Elastase is isolated from human sputum; from tissue; host or cells: human sputum
T1 sequence (P08246 30-267): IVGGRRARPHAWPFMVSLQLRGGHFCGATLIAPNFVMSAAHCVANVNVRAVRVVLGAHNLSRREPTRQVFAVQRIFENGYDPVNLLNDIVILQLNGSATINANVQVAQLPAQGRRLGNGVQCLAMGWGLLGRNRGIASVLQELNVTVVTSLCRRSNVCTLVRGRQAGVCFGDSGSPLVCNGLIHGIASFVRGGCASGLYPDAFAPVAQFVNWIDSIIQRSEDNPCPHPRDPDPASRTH
Description: (§1) Elastase was assayed in vitro using the chromogenic substrate N-MeOSuc-Ala-Ala-Pro-Val-p-nitroanilide ([S]=0.20 mM; Km=0.16 mM), available commercially. The assay techniques are similar to those described by Mehdi, et al., Biochemical and Biophysical Research Communications, 166, 595 (1990). The assay mixture consists of partially purified elastase and substrate (0.2 mM) in 0.1 M HEPES (pH 7.5), 0.5 M NaCl, 10% DMSO and 0.1% Brij 35. The reaction (1 or 2 mL, in a plastic cuvette) is maintained at 37° C. and the hydrolysis of the substrate is followed in the presence of MDL 104,569 and 5 units/mL of porcine liver esterase (Sigma Chemical Co., cat. no. E-3128). Elastase is isolated from human sputum, although recently it has become commercially available. The rate of hydrolysis of the substrate with no inhibitor or prodrug added is assigned 100%. In the presence of 1 μM MDL 104,569, a rate of 81% was obtained; when esterase ([…], Sigma Chemical Co.) was also present, the rate decreased to 24%.
(§2) Elastase was assayed in vitro in the presence of MDL 105,565 using the techniques and procedures described in Example 18. With MDL 105,565, at a concentration of 10 nM, a rate of 99% was obtained; when esterase was added, this rate was 76%. At a concentration of 45 nM, the rates were 94% (without esterase) and 37% (with esterase).

Elastase [2] = target: T1, Elastase; assay: In vitro assay of elastase in the presence of the prodrug and porcine liver esterase; type: biochemical
Description: as §1, §2

SMILES: COC(=O)C(=O)C(NC(=O)C1CCCN1C(=O)C(NC(=O)c1ccc(C(=O)NS(=O)(=O)c2ccc(Cl)cc2)cc1)C(C)C)C(C)C (stereo not drawn) [liberated drug, reference compound]
- Ki (Elastase [1]): 2 nM
- Ki (Elastase [2]; drug liberated from MDL 105,565 by esterase in the assay, read-out: Ki of the liberated drug, calculated): 13 nM

SMILES: COC(=O)/C(OC(C)=O)=C(\NC(=O)[C@@H]1CCCN1C(=O)[C@@H](NC(=O)c1ccc(C(=O)NS(=O)(=O)c2ccc(Cl)cc2)cc1)C(C)C)C(C)C [MDL 105,565, L-Prolinamide, N-[4-[[[(4-chlorophenyl)sulfonyl]amino]carbonyl]benzoyl]-L-valyl-N-[2-(acetyloxy)-3-methoxy-1-(1-methylethyl)-3-oxo-1-propenyl]-, (E)]
- rate of hydrolysis of the substrate (no inhibitor or prodrug added = 100%) (Elastase [1]; 10 nM compound): 99%
- rate of hydrolysis of the substrate (no inhibitor or prodrug added = 100%) (Elastase [1]; 45 nM compound): 94%
- rate of hydrolysis of the substrate (no inhibitor or prodrug added = 100%) (Elastase [2]; 10 nM compound, esterase added): 76%
- rate of hydrolysis of the substrate (no inhibitor or prodrug added = 100%) (Elastase [2]; 45 nM compound, with esterase): 37%

SMILES: COC(=O)CCC(=O)N[C@@H](C)C(=O)N[C@@H](C)C(=O)N1CCC[C@H]1C(=O)NC(=C(OC(C)=O)C(=O)OC)C(C)C (mixture of isomers) [MDL 104,569, L-Prolinamide, N-(4-methoxy-1,4-dioxobutyl)-L-alanyl-L-alanyl-N-[2-(acetyloxy)-3-methoxy-1-(1-methylethyl)-3-oxo-1-propenyl]-, (E)- and (Z)-mixture]
- rate of hydrolysis of the substrate (no inhibitor or prodrug added = 100%) (Elastase [1]; 1 μM compound, substrate 0.2 mM, pH 7.5, 37° C.): 81%
- rate of hydrolysis of the substrate (no inhibitor or prodrug added = 100%) (Elastase [2]; 1 μM compound, esterase also present): 24%

SMILES: COC(=O)CCC(=O)NC(C)C(=O)NC(C)C(=O)N1CCCC1C(=O)NC(C(=O)C(=O)OC)C(C)C (stereo not drawn) [parent drug, MeOSuc-Ala-Ala-Pro-Val-CO2 CH3, reference compound]
- Ki (Elastase [1]): 200 nM
